The numbers were not newly measured in patent EP4772943A1, “ALKALINE AQUEOUS SOLUTION FOR SEMICONDUCTOR, METHOD FOR USE AS LOW-TOXICITY ALKALINE AQUEOUS SOLUTION FOR SEMICONDUCTOR, AND METHOD FOR PRODUCING ALKALINE AQUEOUS SOLUTION FOR SEMICONDUCTOR” (priority 2023, dated 2025), which cites them from elsewhere.

For this data set, the system named is Daphnia sp. The settings on record: OECD TG202 Daphnia sp. acute immobilization test; converted to hydroxide of the quaternary ammonium ion as 100 mass%.

With `C[N+](C)(C)C.[OH-]` [TMAH, Tetramethylammonium hydroxide], the EC50 value was 3 µg/mL.
